# Laboratory results published in patent US20170348337A1, “MULTIFUNCTIONAL MEMBRANE-ACTIVE AMINOGLYCOSIDE-PEPTIDE CONJUGATES” (priority 2014, published 2017).
# “Also recorded” adds a separate entry of the source.
# Test system: E. coli ML35
# Experiment: E. coli ML35 cell permeabilization assay (ONPG→ONP conversion)
# Format: cell-based
# Conditions: 90 min, 37° C.
# Procedure: E. coli ML35 [lacZ-(Con) ΔlacY] cannot take up the lactose mimic ONPG unless cell membrane integrity is compromised. Upon membrane permeabilization ONPG can diffuse into the bacterial cell cytoplasm where it is hydrolyzed by β-galactosidase into galactose and ONP. Since ONP absorbs at 400 nm, the permeabilization kinetics of membrane-disrupting agents can be monitored by OD400 absorbance measurement. Methodology here was very similar to previous studies. Log-phase E. coli cells were grown as described above, washed and resuspended in 10 mM Tris supplemented with 0.01 volume (1% vol/vol) TSB at pH 7.4 (Tris-TSB). In triplicate, bacteria (5×10^6 cells/well) were exposed to various concentrations of antibiotic (Pentobra, tobramycin, Pen peptide) in the presence of 2.5 mM ONPG for 90 min at 37° C. The kinetics of ONPG hydrolysis were measured by determining the absorbance at 400 nm using a plate reader spectrophotometer.
# To characterize the membrane activity of Pentobra on bacteria, its permeabilization kinetics were monitored on live cells by conducting an enzymatic assay for the conversion of ortho-nitrophenyl β-D-galactopyranoside (ONPG) to ortho-nitrophenol (ONP) on the E. coli strain ML35. E. coli ML35 [lacZ-(Con) ΔlacY] constitutively expresses β-galactosidase (β-gal) but lacks the lactose permease necessary for uptake of the lactose analogue ONPG. […]
compound,measurement,value
NC[C@H]1O[C@H](O[C@H]2[C@H](O)[C@@H](O[C@H]3O[C@H](CO)[C@@H](O)[C@H](N)[C@H]3O)[C@H](N)C[C@@H]2N)[C@H](N)C[C@@H]1O [tobramycin],"inner membrane permeabilization (400 nm absorbance, ONPG→ONP)",no membrane permeabilization occurred; also recorded: comparable to background
